Structures are written as SMILES.

T1 sequence (Q9QYN8 whole entry): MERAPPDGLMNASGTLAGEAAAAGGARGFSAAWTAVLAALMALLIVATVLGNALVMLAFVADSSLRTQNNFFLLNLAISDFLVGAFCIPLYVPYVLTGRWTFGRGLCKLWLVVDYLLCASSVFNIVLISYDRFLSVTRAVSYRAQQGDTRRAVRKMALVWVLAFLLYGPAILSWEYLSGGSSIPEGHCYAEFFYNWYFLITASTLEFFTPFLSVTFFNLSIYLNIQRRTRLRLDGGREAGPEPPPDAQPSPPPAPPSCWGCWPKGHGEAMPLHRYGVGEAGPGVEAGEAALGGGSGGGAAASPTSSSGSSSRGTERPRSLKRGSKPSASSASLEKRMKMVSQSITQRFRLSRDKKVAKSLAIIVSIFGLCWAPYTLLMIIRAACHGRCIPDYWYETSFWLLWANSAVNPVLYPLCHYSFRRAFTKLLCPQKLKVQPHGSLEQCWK

The first experiment has as its target T1, histamine-3 receptors (H3 receptor) (Rattus norvegicus, UniProt Q9QYN8).
T1 construct: from tissue; host or cells: male Sprague-Dawley rat brain cortex membranes
The experiment is described as follows: (3H)-N-α-methylhistamine binding to rat cortical membranes.
Settings: not given
As to the method: Briefly, male Sprague-Dawley rat brain cortices were homogenized (1 g tissue/10 mL buffer) in 50 mM Tris-HCl/5 mM EDTA containing protease inhibitor cocktail (Calbiochem) using a polytron set at 20,500 rpm. Homogenates were centrifuged for 20 minutes at 40,000×g. The supernatant was decanted, and pellets were weighed. The pellet was resuspended by polytron homogenization in 40 mL 50 mM Tris-HCl/5 mM EDTA with protease inhibitors and centrifuged for 20 minutes at 40,000×g. […] Rat cortical membranes (12 mg wet weight/tube) were incubated with (^3H)-N-α-methylhistamine (˜0.6 nM) with or without H3 receptor antagonists in a total incubation volume of 0.5 mL of 50 mM Tris-HCl/5 mM EDTA (pH 7.7). Test compounds were dissolved in DMSO to provide a 20 mM solution, serially diluted and then added to the incubation mixtures prior to initiating the incubation assay by addition of the membranes. Thioperamide (3 μM) was used to determine nonspecific binding. Binding incubations were conducted for 30 minutes at 25° C. and terminated by addition of 2 mL of ice cold 50 mM Tris-HCl (pH 7.7) and filtration through 0.3% polyethylenimine-soaked Unifilter plates (Packard). These filters were washed 4 additional times with 2 mL of ice-cold 50 mM Tris-HCl and dried for 1 hour. Radioactivity was determined using liquid scintillation counting techniques. Results were analyzed by Hill transformation and Ki values were determined using the Cheng-Prusoff equation.
With `CN(C)[C@@H]1CCN(CCc2cc3cc(-c4ccc(C#N)cc4)ccc3o2)C1` [Example 66, 4-(2-{2-[(3R)-3-(dimethylamino)pyrrolidinyl]ethyl}-1-benzofuran-5-yl)benzonitrile], the Ki came to 90.4 nM.

Still in this experiment, the particulars now being: male Sprague-Dawley rat brain cortical membranes; (3H)-N-α-methylhistamine ~0.6 nM; 30 minutes at 25° C.; Cheng-Prusoff equation; read-out: Ki.
As to `CN(CCc1cc2cc(-c3ccc(C(=O)N4CCOCC4)cn3)ccc2o1)C(C)(C)C` [Example 54, N-(tert-butyl)-N-methyl-N-(2-{5-[5-(4-morpholinylcarbonyl)-2-pyridinyl]-1-benzofuran-2-yl}ethyl)amine], the inhibition constant Ki was found to be 197 nM.
Regarding `CC(C)CN(C)CCc1cc2cc(-c3ccc(C(=O)N4CCOCC4)cn3)ccc2o1` [Example 55, N-isobutyl-N-methyl-N-(2-{5-[5-(4-morpholinylcarbonyl)-2-pyridinyl]-1-benzofuran-2yl}ethyl)amine], the inhibition constant (Ki) stood at 575 nM.
On the same count and under the same terms, in the case of `CC(C)N(C)CCc1cc2cc(-c3ccc(C(=O)N4CCOCC4)cn3)ccc2o1` [Example 56, N-isopropyl-N-methyl-N-(2-{5-[5-(4-morpholinylcarbonyl)-2-pyridinyl]-1-benzofuran-2-yl}ethyl)amine] it was 105 nM.
Still for that read-out and setting: next, `CCN(CCc1cc2cc(-c3ccc(C(=O)N4CCOCC4)cn3)ccc2o1)C(C)C` [Example 57, N-ethyl-N-isopropyl-N-(2-{5-[5-(4-morpholinylcarbonyl)-2-pyridinyl]-1-benzofuran-2-yl}ethyl)amine]: 115 nM; `CN(C)CCc1cc2cc(-c3ccc(C(=O)N4CCOCC4)cn3)ccc2o1` [Example 58, N,N-dimethyl-N-(2-{5-[5-(4-morpholinylcarbonyl)-2-pyridinyl]-1-benzofuran-2-yl}ethyl)amine]: 133 nM; `CCCN(CC)CCc1cc2cc(-c3ccc(C(=O)N4CCOCC4)cn3)ccc2o1` [Example 59, N-ethyl-N-propyl-N-(2-{5-[5-(4-morpholinylcarbonyl)-2-pyridinyl]-1-benzofuran-2-yl}ethyl)amine]: 79.1 nM.
`O=C(c1ccc(-c2ccc3oc(CCN4CCC5(CC4)OCCO5)cc3c2)nc1)N1CCOCC1` [Example 60, 8-(2-{5-[5-(4-morpholinylcarbonyl)-2-pyridinyl]-1-benzofuran-2-yl}ethyl)-1,4-dioxa-8-azaspiro[4.5]decane]: the Ki amounted to 1000 nM.
Same read-out and setting: next, `O=C(c1ccc(-c2ccc3oc(CCN4CC5CC4CO5)cc3c2)nc1)N1CCOCC1` (stereo not shown) [Example 61, 5-(2-{5-[5-(4-morpholinylcarbonyl)-2-pyridinyl]-1-benzofuran-2-yl}ethyl)-2-oxa-5-azabicyclo[2.2.1]heptane]: 143 nM; `C=CCNCCc1cc2cc(-c3ccc(C(=O)N4CCOCC4)cn3)ccc2o1` [Example 63, N-allyl-N-(2-{5-[5-(4-morpholinylcarbonyl)-2-pyridinyl]-1-benzofuran-2-yl}ethyl)amine]: 1000 nM.
Still for that read-out and setting: next, `O=C(c1ccc(-c2ccc3oc(CCNCCCO)cc3c2)nc1)N1CCOCC1` [Example 64, 3-[(2-{5-[5-(4-morpholinylcarbonyl)-2-pyridinyl]-1-benzofuran-2-yl}ethyl)amino]-1-propanol]: 1000 nM; `CCCNCCc1cc2cc(-c3ccc(C(=O)N4CCOCC4)cn3)ccc2o1` [Example 65, N-(2-{5-[5-(4-morpholinylcarbonyl)-2-pyridinyl]-1-benzofuran-2-yl}ethyl)-N-propylamine]: 596 nM; `C[C@@H]1CCCN1CCc1cc2cc(C(=O)c3cccc(Cl)c3)ccc2o1` [Example 71, (3-chlorophenyl)(2-{2-[(2R)-2-methyl-1-pyrrolidinyl]ethyl}-1-benzofuran-5-yl)methanone]: 2 nM.
Still for that read-out and setting: in the case of `COc1ccc(C(=O)c2ccc3oc(CCN4CCC[C@H]4C)cc3c2)cc1` [Example 73, (4-methoxyphenyl)(2-{2-[(2R)-2-methyl-1-pyrrolidinyl]ethyl}-1-benzofuran-5-yl)methanone] it was 2.9 nM; in that of `C[C@@H]1CCCN1CCc1cc2cc(C(=O)C3CC3)ccc2o1` [Example 75, cyclopropyl(2-{2-[(2R)-2-methyl-1-pyrrolidinyl]ethyl}-1-benzofuran-5-yl)methanone], 9.9 nM.
For `CCC(CC)CC(=O)c1ccc2oc(CCN3CCC[C@H]3C)cc2c1` [Example 76, 3-ethyl-1-(2-{2-[(2R)-2-methyl-1-pyrrolidinyl]ethyl}-1-benzofuran-5-yl)-1-pentanone], the inhibition constant (Ki) was found to be 4 nM.
Turning to `Cc1cc(C(=O)c2ccc3oc(CCN4CCC[C@H]4C)cc3c2)ccc1Cl` [Example 77, (4-chloro-3-methylphenyl)(2-{2-[(2R)-2-methyl-1-pyrrolidinyl]ethyl}-1-benzofuran-5-yl)methanone], the Ki is 6 nM.
`CSc1ccc(C(=O)c2ccc3oc(CCN4CCC[C@H]4C)cc3c2)cc1` [Example 78, (2-{2-[(2R)-2-methyl-1-pyrrolidinyl]ethyl}-1-benzofuran-5-yl)[4-(methylthio)phenyl]methanone]: the inhibition constant (Ki) came to 8.2 nM.
On to `C[C@@H]1CCCN1CCc1cc2cc(C(=O)c3ccc(N(C)C)cc3)ccc2o1` [Example 79, [4-(dimethylamino)phenyl](2-{2-[(2R)-2-methyl-1-pyrrolidinyl]ethyl}-1-benzofuran-5-yl)methanone], for which the Ki was 3.8 nM.
Same read-out and setting: next, `COc1ccccc1C(=O)c1ccc2oc(CCN3CCC[C@H]3C)cc2c1` [Example 82, (2-methoxyphenyl)(2-{2-[(2R)-2-methyl-1-pyrrolidinyl]ethyl}-1-benzofuran-5-yl)methanone]: 1.6 nM; `COc1cccc(C(=O)c2ccc3oc(CCN4CCC[C@H]4C)cc3c2)c1` [Example 83, (3-methoxyphenyl)(2-{2-[(2R)-2-methyl-1-pyrrolidinyl]ethyl}-1-benzofuran-5-yl)methanone]: 1.1 nM.
Same read-out and setting: next, `C[C@@H]1CCCN1CCc1cc2cc(C(=O)c3ccccc3)ccc2o1` [Example 84, (2-{2-[(2R)-2-methyl-1-pyrrolidinyl]ethyl}-1-benzofuran-5-yl)(phenyl)methanone]: 2.8 nM.

The record behind these values is patent publication US20020183309A1, “Novel amines as histamine-3 receptor ligands and their therapeutic applications” (priority 2001, published 2002).
